This is an account of results in publication PMC4685510, “A Cell Biologist’s Field Guide to Aurora Kinase Inhibitors” (Frontiers in Oncology, 2015).

Structures are written as SMILES.

Common to all, as to test: biochemical
What all share (type): biochemical

Assay [1] deals with T1, 363 human kinases (including Aurora A/B/C) (Homo sapiens, UniProt P10398).
T1 sequence (P10398 1-606): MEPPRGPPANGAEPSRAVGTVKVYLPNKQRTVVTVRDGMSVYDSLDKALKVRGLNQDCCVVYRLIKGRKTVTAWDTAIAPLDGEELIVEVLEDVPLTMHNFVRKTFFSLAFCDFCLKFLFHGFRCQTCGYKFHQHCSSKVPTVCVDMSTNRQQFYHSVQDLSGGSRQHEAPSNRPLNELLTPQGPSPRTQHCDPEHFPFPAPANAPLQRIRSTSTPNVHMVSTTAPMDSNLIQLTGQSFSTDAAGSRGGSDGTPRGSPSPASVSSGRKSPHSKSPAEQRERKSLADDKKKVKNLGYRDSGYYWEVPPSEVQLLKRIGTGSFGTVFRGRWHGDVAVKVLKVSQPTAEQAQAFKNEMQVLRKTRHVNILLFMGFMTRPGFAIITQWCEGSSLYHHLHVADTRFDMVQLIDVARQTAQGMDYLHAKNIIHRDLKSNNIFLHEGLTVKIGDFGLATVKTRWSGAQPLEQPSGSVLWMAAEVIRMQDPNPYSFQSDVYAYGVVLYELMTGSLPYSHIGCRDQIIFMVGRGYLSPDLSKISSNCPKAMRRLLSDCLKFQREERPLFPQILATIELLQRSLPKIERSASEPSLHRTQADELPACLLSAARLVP
The conditions noted are these: ARAF, [ATP] 15 µM; for remaining activity at 0.1 µM: 100 nM; for remaining activity at 0.1 µM / remaining activity at 0.5 µM: read-out: % Enzyme Activity (relative to DMSO controls).
Source text: (§1) However, the Aurora A/B selectivity ratios derived from our in vitro and in vivo data can be compared to prioritize inhibitors.

Assay [2] deals with T2, 363 human kinases (including Aurora A/B/C) (Homo sapiens, UniProt Q9BZL6).
T2 sequence (Q9BZL6 1-878): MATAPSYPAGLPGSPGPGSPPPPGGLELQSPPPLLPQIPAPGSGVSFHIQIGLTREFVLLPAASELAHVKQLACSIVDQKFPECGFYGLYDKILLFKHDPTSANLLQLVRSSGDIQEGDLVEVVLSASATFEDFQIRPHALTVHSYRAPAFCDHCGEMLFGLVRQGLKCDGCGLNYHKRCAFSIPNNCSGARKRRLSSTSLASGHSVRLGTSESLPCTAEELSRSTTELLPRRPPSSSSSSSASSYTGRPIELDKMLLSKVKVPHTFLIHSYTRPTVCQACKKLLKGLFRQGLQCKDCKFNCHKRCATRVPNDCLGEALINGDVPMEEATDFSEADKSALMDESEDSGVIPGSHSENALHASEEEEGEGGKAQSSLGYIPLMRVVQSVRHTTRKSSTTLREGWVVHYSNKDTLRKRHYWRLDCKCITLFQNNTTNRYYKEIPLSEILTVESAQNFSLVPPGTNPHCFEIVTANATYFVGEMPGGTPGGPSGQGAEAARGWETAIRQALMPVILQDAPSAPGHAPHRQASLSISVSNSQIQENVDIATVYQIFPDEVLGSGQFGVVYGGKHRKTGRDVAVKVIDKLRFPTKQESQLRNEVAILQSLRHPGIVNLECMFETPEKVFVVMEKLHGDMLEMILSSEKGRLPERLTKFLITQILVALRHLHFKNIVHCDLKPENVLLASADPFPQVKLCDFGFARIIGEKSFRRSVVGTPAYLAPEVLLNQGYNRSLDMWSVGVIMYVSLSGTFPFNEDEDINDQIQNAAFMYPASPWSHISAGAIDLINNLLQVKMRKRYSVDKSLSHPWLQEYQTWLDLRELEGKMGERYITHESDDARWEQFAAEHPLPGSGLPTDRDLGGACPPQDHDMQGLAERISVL
The settings on record: PKD2/PRKD2; for remaining activity at 0.1 µM: 100 nM; for remaining activity at 0.1 µM / remaining activity at 0.5 µM: read-out: % Enzyme Activity (relative to DMSO controls).
Source text: as §1

The target in assay [3] is T3, 363 human kinases (including Aurora A/B/C) (Homo sapiens, UniProt Q8IVT5).
T3 sequence (Q8IVT5 1-923): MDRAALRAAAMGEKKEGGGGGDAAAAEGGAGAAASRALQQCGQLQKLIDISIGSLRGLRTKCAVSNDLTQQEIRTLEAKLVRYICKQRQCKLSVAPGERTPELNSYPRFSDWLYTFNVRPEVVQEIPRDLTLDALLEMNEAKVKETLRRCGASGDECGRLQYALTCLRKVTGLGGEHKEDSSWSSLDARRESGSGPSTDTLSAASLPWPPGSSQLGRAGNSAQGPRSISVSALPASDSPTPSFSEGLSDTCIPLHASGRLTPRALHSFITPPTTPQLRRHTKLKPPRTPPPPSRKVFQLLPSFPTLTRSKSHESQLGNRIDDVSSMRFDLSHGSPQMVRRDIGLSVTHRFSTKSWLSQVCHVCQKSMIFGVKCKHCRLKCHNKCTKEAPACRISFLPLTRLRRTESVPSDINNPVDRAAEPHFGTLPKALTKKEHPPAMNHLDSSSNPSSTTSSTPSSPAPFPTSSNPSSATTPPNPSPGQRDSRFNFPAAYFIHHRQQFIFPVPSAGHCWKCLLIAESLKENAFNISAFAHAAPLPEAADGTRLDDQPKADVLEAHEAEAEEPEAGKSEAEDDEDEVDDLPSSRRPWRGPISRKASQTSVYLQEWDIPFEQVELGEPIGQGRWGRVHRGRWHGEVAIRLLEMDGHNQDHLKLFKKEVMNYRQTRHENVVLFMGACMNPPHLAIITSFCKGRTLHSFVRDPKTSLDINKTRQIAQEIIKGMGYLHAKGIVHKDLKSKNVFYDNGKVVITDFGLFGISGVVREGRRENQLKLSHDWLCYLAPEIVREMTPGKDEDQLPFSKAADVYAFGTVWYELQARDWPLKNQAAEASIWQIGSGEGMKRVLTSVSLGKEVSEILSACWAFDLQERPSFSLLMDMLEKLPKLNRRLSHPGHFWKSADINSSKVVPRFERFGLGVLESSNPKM
The settings on record: KSR1; for remaining activity at 0.1 µM: 100 nM; for remaining activity at 0.1 µM / remaining activity at 0.5 µM: read-out: % Enzyme Activity (relative to DMSO controls).
Source text: as §1

The target of assay [4] is 363 human kinases (including Aurora A/B/C) (Homo sapiens, UniProt Q9UEW8). The settings on record: STK39/STLK3; for remaining activity at 0.1 µM: 100 nM; for remaining activity at 0.1 µM / remaining activity at 0.5 µM: read-out: % Enzyme Activity (relative to DMSO controls).
Source text: as §1

Take `CCn1cc(-c2ccnc3[nH]c(-c4cccc(CN(C)C)c4)cc23)c(-c2ccc(NC(=O)N(C)C)cc2)n1` [GSK1070916]: the remaining activity at 0.1 µM in assay [1] came to 94.9%; in assay [2] it was 93.3%; in assay [3], 94.2%; in assay [4], 100%.

In the case of `O=C(O)[C@]1(Cc2cccc(Nc3nccs3)n2)CC[C@@H](Oc2cccc(Cl)c2F)CC1` [MK-5108], the remaining activity at 0.1 µM in assay [1] came to 96.4%; in assay [2] it was 98.5%; in assay [3], 98.6%; in assay [4], 105%. Moreover, the remaining activity at 0.5 µM in assay [1] (500 nM) was determined as 94.4%; in assay [2] (500 nM), 101%; in assay [3] (500 nM), 98%; in assay [4] (500 nM), 97.4%.

Turning to `O=C(c1cccc(Cl)c1F)N1CCN(Cc2cccc(Nc3nccs3)n2)CC1` [MK-8745], the “% Enzyme Activity (relative to DMSO controls)” value was found to be 95.99% in assay [1] (500 nM), 96.92% in assay [2] (500 nM), 92.75% in assay [3] (500 nM) and 98.73% in assay [4] (500 nM). Also, the remaining activity at 0.5 µM is 96% in assay [1] (500 nM), 98.1% in assay [2] (500 nM), 93.4% in assay [3] (500 nM) and 99.8% in assay [4] (500 nM).
